Reference: patent US11938177B2, “Peptide vaccine formulations and use thereof for inducing an immune response” (The United States of America, as represented by the …, priority 2016, dated 2024)
Square brackets hold non-standard residues; d marks the D form. Ends that are not written are not given here. Peptide text beside a SMILES is read from it. Lys(N3) = [N-]=[N+]=NCCCC[C@H](N)C(=O)O

Legend:
[1] = Solubility of synthetic long peptides in aqueous buffer (PBS pH 7.4, bright field microscopy); type: physicochemical
Description: FIGS. 2A-2E: Impact of adjuvant and the composition of amino acids flanking minimal epitopes on CD8 T cell responses induced by synthetic long peptide vaccines. (2A and 2B) Synthetic long peptides delivering the minimal CTL epitope from Ovalbumin (OVA257-264: SIINFEKL, SEQ ID NO: 1) were prepared with either hydrophobic or hydrophilic flanking sequences to provide insoluble (LSI, 1) or soluble (LSS, 3) peptides alone or linked to a TLR-7/8a through a C-terminal azide to yield a LSI-7/8a (2) and LSS-7/8a (4). Bright field microscopy images are shown of […] at 0.1 mg/mL in PBS at pH 7.4. (2C) The TLR-7/8a adjuvant was delivered as either a small molecule (7/8a, 5) or as a particle (PP-7/8a, 6) with the peptide antigens. (2D and 2E) Long peptides (4 nmol) alone or admixed with or covalently attached to adjuvant (4 nmol) were subcutaneously administered into the hind footpads of mice at days 0 and 14. At day 28, tetramer+ CD8 T cell responses were evaluated from whole blood of mice (n=5-25).
FIGS. 4A-4G: Influence of neoantigen flanking sequences on long peptide morphology and CD8 T cell immunity. (4A) The sequences flanking two minimal CD8 T cell neoantigen epitopes, Reps1 (7) and Irgq (9), derived from murine MC38 […] were exchanged to create two chimeric synthetic long peptides, Reps1 FS (8) and Irgq FS (10). Bright field microscopy images are shown for peptides 7-10 at 0.1 mg/mL in PBS at pH 7.4. (4B-4G) The synthetic long peptide-based neoantigens (7-10) (4 nmol) were admixed with adjuvant (4 nmol) and subcutaneously administered into the hind footpads of C57BL/6 mice at days 0 and 14 and on day 28 whole blood was assessed for the percent of total CD8 T cells that were dextramer^+ for Reps1 (4B) and Irgq (4C); the percent of total CD8 T cells that were IFNγ following stimulation with either Reps1 (4D) or Irgq (4E); or, the percent of total CD4 T cells that were IFNγ following stimulation with either Reps1 (4F) or Irgq (4G). Data on log scale are reported as geometric mean with 95% confidence interval (CI). Data are representative of two or more independent experiments. Student's T test was used for comparison of 2 groups; ns, not significant (P>0.05); *, P<0.05; **, P<0.01.
Soluble: Capable of becoming molecularly or ionically dispersed in a solvent to form a homogeneous solution. […] Solubility can be determined visually or using spectroscopic techniques. Turbidity measurements allow for solubility determination indirectly by using a spectrophotometer to measure absorbance in the visible spectrum, typically between 300-500 nm; insoluble materials scatter light that reduces transmittance, leading to increases in measured absorbance (OD). Herein, absorbance measurements at 490 nm were used to assess solubility. […]

[2] = side chain group (epsilon amine; gamma carboxylic acid); cited from earlier work

CC[C@H](C)[C@H](NC(=O)[C@@H](NC(=O)[C@@H](N)CO)[C@@H](C)CC)C(=O)N[C@@H](CC(N)=O)C(=O)N[C@@H](Cc1ccccc1)C(=O)N[C@@H](CCC(=O)O)C(=O)N[C@@H](CCCCN)C(=O)N[C@@H](CC(C)C)C(=O)N[C@H](C(=O)N[C@@H](Cc1ccccc1)C(=O)N1CCC[C@H]1C(=O)N[C@@H](CCCNC(=N)N)C(=O)N[C@@H](CO)C(=O)N1CCC[C@H]1C(=O)N[C@H](C(=O)N[C@H](C(=O)N[C@@H](Cc1ccccc1)C(=O)N[C@@H](Cc1ccc(O)cc1)C(=O)N[C@@H](CC(N)=O)C(=O)N[C@H](C(=O)N1CCC[C@H]1C(=O)N1CCC[C@H]1C(=O)N[C@@H](CCSC)C(=O)N1CCC[C@H]1C(=O)N[C@@H](CC(C)C)C(=O)N1CCC[C@H]1C(=O)N1CCC[C@H]1C(=O)N[C@@H](CO)C(=O)N[C@@H](CCC(N)=O)C(=O)N[C@@H](CC(C)C)C(=O)N[C@@H](CCCCN=[N+]=[N-])C(=O)O)[C@@H](C)CC)C(C)C)[C@@H](C)O)C(C)C [LSI]
solubility in aqueous buffers [1]: insoluble

CC[C@H](C)[C@H](NC(=O)[C@@H](NC(=O)[C@@H](N)CO)[C@@H](C)CC)C(=O)N[C@@H](CC(N)=O)C(=O)N[C@@H](Cc1ccccc1)C(=O)N[C@@H](CCC(=O)O)C(=O)N[C@@H](CCCCN)C(=O)N[C@@H](CC(C)C)C(=O)N[C@H](C(=O)N[C@@H](CCCCN)C(=O)N1CCC[C@H]1C(=O)N[C@@H](CCCNC(=N)N)C(=O)N[C@@H](CO)C(=O)N1CCC[C@H]1C(=O)N[C@H](C(=O)N[C@@H](CCCNC(=N)N)C(=O)N[C@@H](Cc1ccccc1)C(=O)N[C@@H](CC(=O)O)C(=O)N[C@@H](CC(N)=O)C(=O)N[C@@H](CO)C(=O)N[C@@H](CCCCN)C(=O)N1CCC[C@H]1C(=O)N[C@@H](CO)C(=O)N1CCC[C@H]1C(=O)N[C@@H](CCC(=O)O)C(=O)N1CCC[C@H]1C(=O)N[C@@H](CCCCN)C(=O)N[C@@H](CO)C(=O)N[C@@H](CCC(N)=O)C(=O)N[C@@H](CC(=O)O)C(=O)N[C@@H](CCCCN=[N+]=[N-])C(=O)O)[C@@H](C)O)C(C)C [LSS] (H-SIINFEKLVKPRSPTRFDNSKPSPEPKSQD[Lys(N3)]-OH)
solubility in aqueous buffers [1]: soluble

NCCCC[C@H](N)C(=O)O [Lysine]
pKa [2]: ~10.7

GRVLELFRAAALLNSAVLQIMELCGATR [Irgq FS]
solubility in aqueous buffers [1]: assembled into an aggregate

KARDETAQLANDVVLGAAPLFVPPAD [Reps1 FS]
solubility in aqueous buffers [1]: water-soluble
